What was measured:
[1] = molecular target: T1, recombinant Aurora A (Homo sapiens, UniProt O14965); experiment: Aurora A (Aurora 2) Inhibition Assay (Z'-Lyte); format: biochemical; conditions: 100 μM compound; ATP 10 μM; 1 h
T1 construct: purchased Upstate, Lake Placid, N.Y
T1 sequence (O14965 1-403): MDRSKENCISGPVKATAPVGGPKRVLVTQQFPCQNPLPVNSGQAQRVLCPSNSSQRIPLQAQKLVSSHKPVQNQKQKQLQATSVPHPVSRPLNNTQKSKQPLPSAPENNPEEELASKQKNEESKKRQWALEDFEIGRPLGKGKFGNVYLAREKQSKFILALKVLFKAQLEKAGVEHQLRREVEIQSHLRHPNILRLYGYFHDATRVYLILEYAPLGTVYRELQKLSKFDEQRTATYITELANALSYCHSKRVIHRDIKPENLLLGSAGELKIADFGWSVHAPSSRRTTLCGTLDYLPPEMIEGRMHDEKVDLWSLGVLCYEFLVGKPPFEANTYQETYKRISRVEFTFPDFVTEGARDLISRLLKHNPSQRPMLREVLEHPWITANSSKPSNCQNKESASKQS
Procedure: Compounds were tested for their potency against recombinant Aurora A (Upstate, Lake Placid, N.Y.) using the PanVera Z'-Lyte kinase assay kit-Ser/[…] peptide (Invitrogen, Carlsbad, Calif.). […] Assays were carried out in half-area 96-well white polystyrene assay plates (Corning, Corning, N.Y.) in a final volume of 20 μl. The reaction was allowed to proceed for 1 h at room temperature in the dark, at which point the development reagent and stop reagent were added according to the manufacturer's instructions. Coumarin (Ex. 400 nm, Em. 465 nm) and fluorescein (Ex. 400 nm, Em. 565 nm) fluorescence values were measured on a SpectraFluor Plus plate reader (Tecan, Durham, N.C.). The emission ratio (coumarin/fluorescein) was determined and used to calculate the percent phosphorylation for each well. […] Typically 20-40% of the substrate was phosphorylated in wells without inhibitor. Dose-response curves of relative Aurora A activity vs. inhibitor concentration were plotted with Grafit (Erithacus Software, Horley, Surrey, UK).

[2] = system: HCT-116 cell growth; experiment: Whole Cell Cytotoxicity Assay: Sulforhodamine B; format: cell-based, Human; conditions: 100 μM compound, 96 hours, SRB staining; for inhibition at 100 µM: Homo sapiens, HCT-116
Procedure: Human tumor-derived cell lines, HCT116 or MCF7 (ATCC) were plated in a 96 well plate in DMEM containing 10% fetal bovine serum and 2 mM L-glutamine at a density of 500 HCT116 cells or 1,000 MCF7 cells per well and incubated at 37° C., 5% CO2, for 24 hours prior to the addition of experimental compounds. Compounds were added using the dilution series indicated to duplicate plates and the cells were incubated in media plus compound for 96 hours. An additional plate was fixed in 10% TCA at the time of the addition of compound to provide a measurement of the cell population at time zero, the time of drug addition. Following the 96 hour incubation, cells were fixed in situ by gently aspirating off the culture media and then adding 50 ul of ice cold 10% TCA per well and incubation at 4° C. for 60 minutes. The plates were washed with tap water five times and allowed to air dry for 5 minute. 50 ul of a 0.4% (w/v) Sulforhodamine B solution in 1% (v/v) acetic acid was added per well and the cells were incubated for 30 minutes at room temperature. Following staining, plates were washed four times with 1% acetic acid to remove any unbound dye and then allowed to air dry for 5 minutes. The stain was solubilized with 100 ul of 10 mM Tris pH 10.5 per well and placed on an orbital rotator for 5 minutes. The absorbance was read at 570 nm. Percentage growth was calculated using the absorbance readings from the time zero plate (Tz) and the dilution series plate […] which included a column of cells grown in media without compound as a control (C) using the formulas: [(Ti−Tz)/(C−Tz)]×100 for concentrations for which Ti>/=Tz [(Ti−Tz)/Tz]×100 for concentrations for which Ti<Tz.
Three dose response parameters were calculated for each experimental agent. Growth inhibition of 50% (GI50) was calculated from [(Ti−Tz)/(C−Tz)]×100=50, which was the drug concentration resulting in a 50% reduction in the net protein increase (as measured by SRB staining) in control cells during the drug incubation. The drug concentration resulting in total growth inhibition (TGI) was calculated from Ti=Tz. The LC50 (concentration of drug resulting in a 50% reduction in the measured protein at the end of the drug treatment as compared to that at the beginning) indicating a net loss of cells following treatment was calculated from [(Ti−Tz)/Tz]×100=−50. Values are calculated for each of these three parameters if the level of activity was reached; however, if the effect was not reached or was exceeded, the value for that parameter is expressed as greater or less than the maximum or minimum concentration tested.

| Molecule | inhibition at 100 µM [1] [%] | % Inhibition of Aurora A @ 100 μM [1] [%] | inhibition at 100 µM [2] [%] | % Inhibition of HCT-116 cell growth @ 100 μM [2] [%] |
| --- | --- | --- | --- | --- |
| Cc1cc(Nc2nc(/C=C/c3ccccc3)nc(N3CCCCC3)c2N)[nH]n1 [Example 14, N-(3-methyl-1H-pyrazol-5-yl)-6-(piperidin-1-yl)-2-[(E)-2-phenylvinyl]pyrimidin-4,5-diamine] | 98 |  |  |  |
| CCOC(=O)c1nc(/C=C/c2ccc(Cl)cc2)nc(Nc2cc(C)n[nH]2)c1N [Example 19, ethyl 5-amino-2-[(E)-2-(4-chlorophenyl)vinyl]-6-[(3-methyl-1H-pyrazol-5-yl)amino]pyrimidine-4-carboxylate] | 99 |  | 96 |  |
| Cc1cc(Nc2cc(NCCN(C)C)nc(/C=C/c3ccccc3)n2)n[nH]1 [Example 66, N^4-(2-(dimethylamino)ethyl)-N^6-(5-methyl-1H-pyrazol-3-yl)-2-styrylpyrimidine-4,6-diamine] | 100 |  | 98 |  |
| Cc1cc(Nc2nc(/C=C/c3ccccc3)nc(Nc3cc(C)n[nH]3)c2N)[nH]n1 [Example 11] | 98 |  | 99 |  |
| CCOC(=O)c1nc(/C=C/c2ccc(C(F)(F)F)cc2)nc(Nc2cc(C)n[nH]2)c1N [Example 20, ethyl 5-amino-6-[(3-methyl-1H-pyrazol-5-yl)amino]-2-{(E)-2-[4-(trifluoromethyl)phenyl]vinyl}pyrimidine-4-carboxylate] | 77 |  | 97 |  |
| COC(=O)c1ccc(/C=C/c2nc(Nc3cc(C)[nH]n3)c([N+](=O)[O-])c(N3CCN(C)CC3)n2)cc1 [Example 38, methyl 4-((E)-2-{4-(4-methylpiperazin-1-yl)-6-[(3-methyl-1H-pyrazol-5-yl)amino]-5-nitropyrimidin-2-yl}vinyl)benzoate] | 99 |  |  |  |
| Cc1cc(Nc2nc(/C=C/c3ccccc3)nc(N3CCOCC3)c2N)[nH]n1 [Example 12, N-(3-methyl-1H-pyrazol-5-yl)-6-(morpholin-4-yl)-2-[(E)-2-phenylvinyl]pyrimidin-4,5-diamine] | 100 |  | 99 |  |
| CCOC(=O)c1nc(/C=C/c2ccc(C)cc2)nc(Nc2cc(C)n[nH]2)c1N [Example 21, ethyl 5-amino-2-[(E)-2-(4-methylphenyl)vinyl]-6-[(3-methyl-1H-pyrazol-5-yl)amino]pyrimidine-4-carboxylate] | 100 |  | 93 |  |
| Cc1cc(Nc2nc(/C=C/c3ccccc3)nc(N3CCNCC3)c2N)[nH]n1 [Example 13, N-(3-methyl-1H-pyrazol-5-yl)-6-(piperazin-1-yl)-2-[(E)-2-phenylvinyl]pyrimidin-4,5-diamine] | 93 |  |  |  |
| CCOC(=O)c1nc(/C=C/c2cccc(F)c2)nc(Nc2cc(C)n[nH]2)c1N [Example 22, ethyl 5-amino-2-[(E)-2-(3-fluorophenyl)vinyl]-6-[(3-methyl-1H-pyrazol-5-yl)amino]pyrimidine-4-carboxylate] | 97 |  | 85 |  |
| Cc1cc(Nc2cc(N3CCCCC3)nc(/C=C/c3ccccc3)n2)n[nH]1 [Example 67, N-(5-methyl-1H-pyrazol-3-yl)-6-(piperidin-1-yl)-2-styrylpyrimidin-4-amine] | 100 |  | 98 |  |
| Cc1cc(Nc2cc(N3CCOCC3)nc(/C=C/c3ccccc3)n2)n[nH]1 [Example 64, N-(5-methyl-1H-pyrazol-3-yl)-6-morpholino-2-styrylpyrimidin-4-amine] | 100 |  | 98 |  |
| COc1cc(/C=C/c2nc(Nc3cc(C)[nH]n3)cc(N3CCN(C)CC3)n2)cc(OC)c1 [Example 50, 2-(3,5-dimethoxystyryl)-N-(5-methyl-1H-pyrazol-3-yl)-6-(4-methylpiperazin-1-yl)pyrimidin-4-amine] | 100 |  | 98 |  |
| Cc1cc(Nc2cc(Cl)nc(/C=C/c3ccccc3)n2)n[nH]1 [Example 34, 6-chloro-N-(3-methyl-1H-pyrazol-5-yl)-2-[(E)-2-phenylvinyl]pyrimidin-4-amine] | 99 |  | 98 |  |
| COC(=O)c1ccc(/C=C/c2nc(Cl)c([N+](=O)[O-])c(Nc3cc(C)[nH]n3)n2)cc1 [Example 37, methyl 4-((E)-2-{4-chloro-6-[(3-methyl-1H-pyrazol-5-yl)amino]-5-nitropyrimidin-2-yl}vinyl)benzoate] | 80 |  |  |  |

Continued, in another order:

| inhibition at 100 µM [1] [%] | % Inhibition of Aurora A @ 100 μM [1] [%] | Molecule | inhibition at 100 µM [2] [%] | % Inhibition of HCT-116 cell growth @ 100 μM [2] [%] |
| --- | --- | --- | --- | --- |
| 100 |  | Cc1cc(Nc2cc(Nc3ccccc3)nc(/C=C/c3ccccc3)n2)n[nH]1 [Example 82, N^4-(5-methyl-1H-pyrazol-3-yl)-N^6-phenyl-2-styrylpyrimidine-4,6-diamine] | 98 |  |
| 100 |  | Cc1ccc(/C=C/c2nc(Nc3cc(C)[nH]n3)c(N)c(N3CCN(C)CC3)n2)cc1 [Example 170] | 99 |  |
| 100 |  | Cc1cc(Nc2cc(Nc3ccc(F)cc3)nc(/C=C/c3ccccc3)n2)n[nH]1 [Example 86, N^4-(4-fluorophenyl)-N^6-(5methyl-1H-pyrazol-3-yl)-2-styrylpyrimidine-4,6-diamine] | 98 |  |
| 95 |  | Cc1ccc(/C=C/c2nc(Nc3cc(C)[nH]n3)c([N+](=O)[O-])c(N3CCN(C)CC3)n2)cc1 [Example 169] |  |  |
| 100 |  | Cc1cc(Nc2cc(NCc3ccco3)nc(/C=C/c3ccccc3)n2)n[nH]1 [Example 162, N^4-((furan-2-yl)methyl)-N^6-(5methyl-1H-pyrazol-3-yl)-2-styrylpyrimidine-4,6-diamine] | 98 |  |
| 100 |  | Cc1cc(Nc2nc(/C=C/c3ccc(F)cc3)nc(N3CCN(C)CC3)c2N)n[nH]1 [Example 173] | 98 |  |
| 89 |  | Cc1cc(Nc2nc(/C=C/c3ccc(Cl)cc3)nc(N3CCN(C)CC3)c2[N+](=O)[O-])n[nH]1 [Example 171] |  |  |
| 100 |  | Cc1cc(Nc2cc(N3CCN(C)CC3)nc(/C=C/c3ccc(Br)cc3)n2)n[nH]1 [Example 103, 2-(4-bromostyryl)-N-(5-methyl-1H-pyrazol-3-yl)-6-(4-methylpiperazin-1-yl)pyrimidin-4-amine] | 84 |  |
| 99 |  | Cc1cc(Nc2nc(/C=C/c3ccc(Cl)cc3)nc(N3CCN(C)CC3)c2N)n[nH]1 [Example 172] | 99 |  |
| 100 |  | Cc1cc(Nc2cc(N3CCN(S(C)(=O)=O)CC3)nc(/C=C/c3ccccc3)n2)n[nH]1 [Example 71, N-(5-methyl-1H-pyrazol-3-yl)-6-(4-methylsulfonylpiperazin-1-yl)-2-styrylpyrimidin-4-amine] | 98 |  |
| 100 |  | COc1ccc(/C=C/c2nc(Nc3cc(C)[nH]n3)cc(N3CCN(C)CC3)n2)cc1 [Example 160, 2-(4-methoxystyryl)-N-(5-methyl-1H-pyrazol-3-yl)-6-(4-methylpiperazin-1-yl)pyrimidin-4-amine] | 97 |  |
|  | 100 | 2-(4-methoxystyryl)-N-(5-methyl-1H-pyrazol-3-yl)-6-(4-methylpiperazin-1-yl)pyrimidin-4-amine [Example 161] |  | 93 |

From US7563787B2, “Substituted pyrazole compounds” (Miikana Therapeutics, Inc., priority 2005, dated 2009)
